Experimental data from the NIST ThermoML archive (doi:10.1021/acs.jced.8b00124).
± gives the expanded uncertainty stated by the source.

Experiments:
[1] = Crystal; DTA
[2] = Molar enthalpy of transition or fusion; conditions: Crystal; DSC

Cc1cc(C)nc(Nc2ccccc2)n1 [2-anilino-4,6-dimethylpyrimidine]
Normal melting temperature [1]: 96.14 ± 1.1 °C
Molar enthalpy of transition or fusion [2]: 6.08 ± 0.263 kcal/mol
